This is an account of results in patent publication US20220144823A1, “PYRAZOLOPYRIDINE DERIVATIVES AS INHIBITORS OF PASK” (Galapagos NV, priority 2019, published 2022).

The target in assay [1] is T1, human PASK (Homo sapiens, UniProt Q96RG2).
T1 construct: purchased ThermoFisher Scientific PR7013A
The experiment in a line: 33P radioactive kinase assay. It is filed as biochemical. The conditions noted are these: 33P radioactive PASK kinase assay, 10 μM ATP, ZIPtide 1 μM. On the procedure:
The principle of the ^33P radioactive kinase assay consists in measuring the incorporated ^33P into the ZIPtide peptide substrate when phosphorylated by human PASK using [^33P]-[…]-ATP and ATP, which correlates with kinase activity.
The test compounds are prepared as a serial dilution of 10 point dose responses with 1/5 dilution steps in 100% DMSO starting from 0.2 or 2 mM highest concentration, diluted 1/20 in water and 5 μL is transferred to the assay plates (Greiner, Cat #651201).
(§1) 1% DMSO and 10 μM staurosporine final concentrations are used respectively as negative and positive controls.
11 μL of enzyme-substrate mixture is added on the assay plates. The reactions are started by adding 9 μL ATP mixture, consisting of non-labeled and ^33P-labeled ATP, on the assay plates.
The reactions are stopped by adding 25 μL phosphoric acid (150 mM) to the reactions.
The completely terminated kinase reactions are transferred using a harvester on pre-wetted UniFilter-96 plates (UniFilter-96 GF/B, PerkinElmer Inc., Cat #6005177).
After harvesting the kinase reactions, the filter plates are washed 6 times with phosphoric acid (75 mM). The back of the UniFilter-96 plates are sealed and 40 μL MicroScint-20 (PerkinElmer Inc., Cat #6013621) is added to each well. The top of each plate is sealed with TopSeal-A (PerkinElmer Inc., Cat #6050185). Read-out is performed with a TopCount instrument (PerkinElmer Inc.).
Raw data are generated following the read-out performed on the TopCount, used to calculate percentage inhibition (PIN) values and plotted to generate dose response curves and derive the average half maximal inhibitory concentrations (IC50) reported in Table VI.

Assay [2] deals with T1, human PASK. Description: ADP-Glo kinase assay. It is filed as biochemical. Conditions: ADPGlo PASK kinase assay, 25 μM ATP, ZIPtide 25 μM. On the procedure:
The ADP-Glo™ kinase assay is a luminescent technology assay which measures the ADP formed from a kinase reaction. In this specific study, the kinase reactions consisted of the phosphorylation of the ZIPtide peptide substrate by human recombinant PASK. In a second step the kinase reaction is terminated and all the remaining ATP is depleted. In a final step the ADP is converted into ATP and this newly synthesized ATP is measured by using a luciferase/luciferin reaction. The generated light is measured using an Envision plate reader, wherein the luminescent signal obtained positively correlates with the kinase activity.
The test compounds are prepared as a serial dilution of 10 point dose responses with 1/5 dilution steps in 100% DMSO starting from 2 mM highest concentration, diluted 1/20 in water and 1 μL is transferred to the assay plates (PerkinElmer Inc., Cat #6007290).
as §1
2 μL enzyme-substrate mixture is added to the assay plates.
The reaction is started by adding 2 μL diluted ATP on the assay plates immediately after addition of the enzyme-substrate mixture to the compound. Plates are centrifuged for a few seconds at 1000 rpm and gently shaken for 2 min followed by an incubation at RT for 120 min.
The reactions are stopped and the unconsumed ATP is depleted by adding 5 μL ADP-Glo Reagent (Promega, Cat #V912B) to the reaction. The plates are centrifuged for a few seconds at 1000 rpm and incubated at RT for 40 min (ATP depletion).
The ADP is converted to ATP and luciferase and luciferin is introduced to detect ATP by adding 10 μL Kinase Detection Reagent (Promega, Cat #V913B+V914B) to the reaction. The plates are centrifuged for a few seconds at 1000 rpm and incubated at RT for 30 min (ADP detection).
Luminescence is measured on an Envision plate reader (PerkinElmer Inc.).
Raw data are generated following the read-out performed on the Envision plate reader, used to calculate percentage inhibition (PIN) values and plotted to generate dose response curves and derive the average half maximal inhibitory concentrations (IC50) reported in Table VIII.

T1 sequence (Q96RG2 whole entry): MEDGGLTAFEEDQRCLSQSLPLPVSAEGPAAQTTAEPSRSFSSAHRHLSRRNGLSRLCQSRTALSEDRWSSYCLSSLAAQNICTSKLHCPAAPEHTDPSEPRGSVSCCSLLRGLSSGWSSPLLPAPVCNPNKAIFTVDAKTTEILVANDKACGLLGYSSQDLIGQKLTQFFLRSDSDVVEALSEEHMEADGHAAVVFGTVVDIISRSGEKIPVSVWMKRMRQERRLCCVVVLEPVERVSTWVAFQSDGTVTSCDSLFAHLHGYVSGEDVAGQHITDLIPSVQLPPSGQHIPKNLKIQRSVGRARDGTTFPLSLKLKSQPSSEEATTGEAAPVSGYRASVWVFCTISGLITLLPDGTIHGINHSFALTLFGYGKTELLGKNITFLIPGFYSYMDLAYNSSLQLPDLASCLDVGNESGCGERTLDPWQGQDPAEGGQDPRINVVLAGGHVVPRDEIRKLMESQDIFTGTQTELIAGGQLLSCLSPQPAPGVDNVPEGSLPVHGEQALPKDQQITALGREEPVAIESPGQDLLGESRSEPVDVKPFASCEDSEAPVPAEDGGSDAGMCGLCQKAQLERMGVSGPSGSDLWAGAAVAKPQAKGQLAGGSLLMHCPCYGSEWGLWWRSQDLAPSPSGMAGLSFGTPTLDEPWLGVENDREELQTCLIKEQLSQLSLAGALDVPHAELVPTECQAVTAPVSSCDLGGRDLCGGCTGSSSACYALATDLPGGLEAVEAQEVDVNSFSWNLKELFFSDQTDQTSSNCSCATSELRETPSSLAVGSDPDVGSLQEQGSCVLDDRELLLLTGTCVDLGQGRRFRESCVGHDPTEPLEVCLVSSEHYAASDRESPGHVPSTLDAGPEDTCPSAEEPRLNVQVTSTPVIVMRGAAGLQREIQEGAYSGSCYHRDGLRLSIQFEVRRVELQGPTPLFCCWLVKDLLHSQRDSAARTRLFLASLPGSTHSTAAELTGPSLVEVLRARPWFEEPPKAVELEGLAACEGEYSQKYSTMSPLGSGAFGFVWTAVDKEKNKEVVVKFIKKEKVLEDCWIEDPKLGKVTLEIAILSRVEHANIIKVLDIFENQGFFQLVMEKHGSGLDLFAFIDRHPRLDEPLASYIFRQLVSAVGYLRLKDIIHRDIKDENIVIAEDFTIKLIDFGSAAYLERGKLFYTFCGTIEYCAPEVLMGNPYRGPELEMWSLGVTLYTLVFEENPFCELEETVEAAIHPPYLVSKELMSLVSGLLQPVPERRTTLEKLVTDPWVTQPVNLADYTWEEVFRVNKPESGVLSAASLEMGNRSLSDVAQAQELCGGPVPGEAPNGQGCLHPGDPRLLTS

Consider `Cc1c(-c2cnn3ccc(-c4nc(C(=O)O)co4)cc23)cnn1C` [Cpd 33, 2-[3-(1,5-dimethylpyrazol-4-yl)pyrazolo[1,5-a]pyridin-5-yl]oxazole-4-carboxylic acid], for which the 50% inhibitory concentration (IC50) in assay [1] is 10 to 100 nM.

Consider `Cc1nn(C)c(C)c1-c1cnn2ccc(-c3cc(C(=O)NS(=O)(=O)C4CC4)co3)cc12` [Cpd 22, N-cyclopropylsulfonyl-5-[3-(1,3,5-trimethylpyrazol-4-yl)pyrazolo[1,5-a]pyridin-5-yl]furan-3-carboxamide], for which the IC50 in assay [1] was 10 to 100 nM.

In the case of `Cc1nn(C)c(C)c1-c1cnn2ccc(-c3cc(C(=O)NS(C)(=O)=O)co3)cc12` [Cpd 21, N-methylsulfonyl-5-[3-(1,3,5-trimethylpyrazol-4-yl)pyrazolo[1,5-a]pyridin-5-yl]furan-3-carboxamide], the IC50 in assay [1] was in the range of 10 to 100 nM.

For `Cn1cc(-c2cnn3ccc(-c4cc(C(=O)O)co4)cc23)cn1` [Cpd 3, 5-[3-(1-methylpyrazol-4-yl)pyrazolo[1,5-a]pyridin-5-yl]furan-3-carboxylic acid], the IC50 in assay [1] was in the range of 10 to 100 nM.

Regarding `Cc1noc(C)c1-c1cnn2ccc(-c3nc(C4CC4)c(C(=O)O)s3)cc12` [Cpd 37, 4-cyclopropyl-2-[3-(3,5-dimethylisoxazol-4-yl)pyrazolo[1,5-a]pyridin-5-yl]thiazole-5-carboxylic acid], the IC50 in assay [1] and in assay [2] was 0.01 to 10 nM in each case.

On to `Cc1noc(C)c1-c1cnn2ccc(-c3ccc(C(=O)O)o3)cc12` [Cpd 31, 5-[3-(3,5-dimethylisoxazol-4-yl)pyrazolo[1,5-a]pyridin-5-yl]furan-2-carboxylic acid], for which the IC50 in assay [1] was 10 to 100 nM.

With `Cc1noc(C)c1-c1cnn2ccc(-c3cc(C(=O)O)c(C)o3)cc12` [Cpd 19, 5-[3-(3,5-dimethylisoxazol-4-yl)pyrazolo[1,5-a]pyridin-5-yl]-2-methyl-furan-3-carboxylic acid], the IC50 in assay [1] was 0.01 to 10 nM.

For `Cc1noc(C)c1-c1cnn2ccc(-c3nc(C(=O)O)co3)cc12` [Cpd 20, 2-[3-(3,5-dimethylisoxazol-4-yl)pyrazolo[1,5-a]pyridin-5-yl]oxazole-4-carboxylic acid], the values for the 50% inhibitory concentration (IC50) in assay [1] and in assay [2] were 10 to 100 nM and 100 to 500 nM, respectively.

On to `Cc1noc(C)c1-c1cnn2ccc(-c3ncc(C(=O)O)o3)cc12` [Cpd 24, 2-[3-(3,5-dimethylisoxazol-4-yl)pyrazolo[1,5-a]pyridin-5-yl]oxazole-5-carboxylic acid], for which, in assay [1], the half-inhibitory concentration (IC50) fell in the range of 0.01 to 10 nM.

`Cc1nn(C)c(C)c1-c1cnn2ccc(-c3cc(C(=O)O)c(C)o3)cc12` [Cpd 16, 2-methyl-5-[3-(1,3,5-trimethylpyrazol-4-yl)pyrazolo[1,5-a]pyridin-5-yl]furan-3-carboxylic acid]: the IC50 in assay [1] was in the range of 0.01 to 10 nM.

Consider `Cc1noc(C)c1-c1cnn2ccc(-c3cc(C(=O)O)c(C4=CCOCC4)o3)cc12` [Cpd 41, 2-(3,6-dihydro-2H-pyran-4-yl)-5-[3-(3,5-dimethyl-isoxazol-4-yl)pyrazolo[1,5-a]pyridin-5-yl]furan-3-carboxylic acid], for which the IC50 in assay [1] is 0.01 to 10 nM.

Turning to `COC(=O)c1coc(-c2ccn3ncc(-c4c(C)nn(C)c4C)c3c2)c1` [Cpd 5, methyl 5-[3-(1,3,5-trimethylpyrazol-4-yl)pyrazolo[1,5-a]pyridin-5-yl]furan-3-carboxylate], the half-inhibitory concentration (IC50) in assay [1] was in the range of 10 to 100 nM.

For the compound `Cc1nn(C)c(C)c1-c1cnn2ccc(-c3cc(C(=O)OCC(=O)N(C)C)co3)cc12` [Cpd 7, [2-(dimethylamino)-2-oxo-ethyl] 5-[3-(1,3,5-trimethylpyrazol-4-yl)pyrazolo[1,5-a]pyridin-5-yl]furan-3-carboxylate], in assay [1], the half-maximal inhibitory concentration (IC50) was in the range of 10 to 100 nM.

Consider `Cc1nn(C)c(C)c1-c1cnn2ccc(-c3cc(C(=O)O)c(CC(C)C)o3)cc12` [Cpd 27, 2-isobutyl-5-[3-(1,3,5-trimethylpyrazol-4-yl)pyrazolo[1,5-a]pyridin-5-yl]furan-3-carboxylic acid], for which the half-maximal inhibitory concentration (IC50) in assay [1] is 0.01 to 10 nM.

For the compound `Cc1nn(C(C)C)c(C)c1-c1cnn2ccc(-c3ncc(C(=O)O)s3)cc12` [Cpd 30, 2-[3-(1-isopropyl-3,5-dimethyl-pyrazol-4-yl)pyrazolo[1,5-a]pyridin-5-yl]thiazole-5-carboxylic acid], the IC50 in assay [1] and in assay [2] was 0.01 to 10 nM throughout.

As to `COc1nc(-c2ccn3ncc(-c4c(C)nn(C)c4C)c3c2)sc1C(N)=O` [Cpd 11, 4-methoxy-2-[3-(1,3,5-trimethylpyrazol-4-yl)pyrazolo[1,5-a]pyridin-5-yl]thiazole-5-carboxamide], the IC50 in assay [1] is 0.01 to 10 nM.

With `Cc1nn(C)cc1-c1cnn2ccc(-c3cc(C(=O)O)co3)cc12` [Cpd 14, 5-[3-(1,3-dimethylpyrazol-4-yl)pyrazolo[1,5-a]pyridin-5-yl]furan-3-carboxylic acid], the IC50 in assay [1] and in assay [2] was 0.01 to 10 nM throughout.

With `Cc1noc(C)c1-c1cnn2ccc(-c3ncc(C(=O)O)s3)cc12` [Cpd 25, 2-[3-(3,5-dimethylisoxazol-4-yl)pyrazolo[1,5-a]pyridin-5-yl]thiazole-5-carboxylic acid], the concentration for half-maximal inhibition (IC50) in assay [1] lay within 0.01 to 10 nM.

For `Cn1cc(-c2cnn3ccc(-c4cc(C(=O)O)c(C(=O)Nc5ccccc5)o4)cc23)cn1` [Cpd 1, 5-[3-(1-methylpyrazol-4-yl)pyrazolo[1,5-a]pyridin-5-yl]-2-(phenylcarbamoyl) furan-3-carboxylic acid], the 50% inhibitory concentration (IC50) in assay [1] was 0.01 to 10 nM.

Regarding `Cc1nn(C(C)C)c(C)c1-c1cnn2ccc(-c3nc(C(F)F)c(C(=O)O)s3)cc12` [Cpd 46, 4-(difluoromethyl)-2-[3-(1-isopropyl-3,5-dimethyl-pyrazol-4-yl)pyrazolo[1,5-a]pyridin-5-yl]thiazole-5-carboxylic acid], the IC50 in assay [1] lay in the range of 0.01 to 10 nM.

As to `Cc1noc(C)c1-c1cnn2ccc(-c3cc(C(=O)O)c(C4CCOCC4)o3)cc12` [Cpd 44, 5-[3-(3,5-dimethylisoxazol-4-yl)pyrazolo[1,5-a]pyridin-5-yl]-2-tetrahydropyran-4-yl-furan-3-carboxylic acid], the 50% inhibitory concentration (IC50) in assay [1] and in assay [2] was 0.01 to 10 nM in each case.

Take `CCOc1nc(-c2ccn3ncc(-c4c(C)noc4C)c3c2)sc1C(=O)O` [Cpd 17, 2-[3-(3,5-dimethylisoxazol-4-yl)pyrazolo[1,5-a]pyridin-5-yl]-4-ethoxy-thiazole-5-carboxylic acid]: the concentration for half-maximal inhibition (IC50) in assay [1] and in assay [2] was 0.01 to 10 nM in each case.

For `Cc1nn(C)c(C)c1-c1cnn2ccc(-c3cc(C(=O)O)c(C4CC4)o3)cc12` [Cpd 15, 2-cyclopropyl-5-[3-(1,3,5-trimethylpyrazol-4-yl)pyrazolo[1,5-a]pyridin-5-yl]furan-3-carboxylic acid], the IC50 in assay [1] and in assay [2] was 0.01 to 10 nM each time.

For `CCc1oc(-c2ccn3ncc(-c4c(C)nn(C)c4C)c3c2)cc1C(=O)O` [Cpd 26, 2-ethyl-5-[3-(1,3,5-trimethylpyrazol-4-yl)pyrazolo[1,5-a]pyridin-5-yl]furan-3-carboxylic acid], in assay [1], the half-inhibitory concentration (IC50) is 0.01 to 10 nM.

Turning to `Cc1noc(C)c1-c1cnn2ccc(-c3nc(C(=O)O)c(C)o3)cc12` [Cpd 34, 2-[3-(3,5-dimethylisoxazol-4-yl)pyrazolo[1,5-a]pyridin-5-yl]-5-methyl-oxazole-4-carboxylic acid], the IC50 in assay [1] and in assay [2] was 10 to 100 nM each time.

As to `CCOC(=O)c1coc(-c2ccn3ncc(-c4c(C)nn(C)c4C)c3c2)c1` [Cpd 6, ethyl 5-[3-(1,3,5-trimethylpyrazol-4-yl)pyrazolo[1,5-a]pyridin-5-yl]furan-3-carboxylate], the half-maximal inhibitory concentration (IC50) in assay [1] was in the range of 10 to 100 nM.

As to `Cc1noc(C)c1-c1cnn2ccc(-c3nc(C(F)F)c(C(=O)O)s3)cc12` [Cpd 45, 4-(difluoromethyl)-2-[3-(3,5-dimethylisoxazol-4-yl)pyrazolo[1,5-a]pyridin-5-yl]thiazole-5-carboxylic acid], in assay [1], the IC50 lay within 10 to 100 nM.
